Assay results from paper PMC12523303, “Multi-Fused S,N-Heterocyclic Compounds for Targeting α-Synuclein Aggregates” (Cells, 2025).
Values joined by “and” are separate entries in the source; they are usually repeats but may differ in a detail not shown here. Identical values can stand only once. Like-named read-outs stand apart in the source and are kept apart here.

What was measured:
α-syn fibrils [1] = target: α-syn fibrils; parameters: method as in PMID 37421950; settings: cited from earlier work
[2] = target: T1, α-synuclein (α-syn) aggregates in PD brain homogenates (Homo sapiens, UniProt P37840); assay: In vitro competition (Ki) assay vs [3H]asyn-44 in PD brain homogenates; assay type: binding; settings: 1 nM [3H]asyn-44
T1 construct: Anterior cingulate cortex tissue from a Parkinson’s disease (PD) case; tissue Banner Sun Health Research Institute (Dr. Thomas Beach); host or cells: post-mortem human PD anterior cingulate cortex homogenate
Description: Anterior cingulate cortex tissue from a Parkinson’s disease (PD) case was generously provided by Dr. Thomas Beach at the Banner Sun Health Research Institute in Arizona, USA. […] Preparation of the frozen blocks for binding assays followed previously established protocols.
The equilibrium inhibition constants (Ki) for the unlabelled compounds were measured against [^3H]asyn-44 using our previously reported procedure. For these assays, frozen aliquots of homogenized human brain tissue (stored at −80 °C) were used. Homogenates were prepared at 10 mg/mL in phosphate-buffered saline, then diluted with 50 mM Tris buffer (pH 7.0) to a working concentration of 1 mg/mL.
Unlabeled competitor compounds were initially dissolved in DMSO at 400 μM, then diluted with Tris buffer to 20 μM, resulting in a 5% DMSO concentration. A serial dilution series (ranging from 6 μM to 4 nM) was prepared in the same 5% DMSO/Tris buffer solution to maintain consistent solvent conditions throughout the assay.
To perform the binding assay, 50 μL of the appropriately diluted competitor solution was mixed with 50 μL of [^3H]asyn-44 (1 nM final concentration) and 800 μL of Tris buffer containing 20% ethanol and 0.1% bovine serum albumin (BSA). Then, 100 μL of the 1 mg/mL brain homogenate was added, bringing the final tissue concentration to 100 μg/mL. The reaction mixtures were incubated at room temperature for 60 min before filtration through Whatman GF/B glass fibre filters using a Brandel M-24R cell harvester (Gaithersburg, MD, USA). Filters were washed three times with 3 mL of Tris buffer containing 20% ethanol and 0.1% BSA.
After washing, retained radioactivity was measured using CytoScint-ES scintillation fluid following thorough vortexing. Specific binding was calculated by correcting for nonspecific binding (as described later), and the amount of bound radioligand was derived from the filter-associated radioactivity and the molar activity of the tritiated compound.

[3] = target: T1, α-synuclein (α-syn) aggregates in PD brain homogenates; assay: Two point screening assay (30 nM and 300 nM) vs [3H]asyn-44 in human PD brain homogenates; assay type: binding; settings: for remaining activity at 0.03 µM: 30 nM competitor; for remaining activity at 0.3 µM: 300 nM competitor
Description: Screening assays for the test compounds were performed at two concentrations—30 nM and 300 nM—using unlabelled competitors in human PD brain homogenates against [^3H]asyn-44 as previously described. […] Each assay was conducted in triplicate for both concentrations to ensure reproducibility and statistical reliability.

[4] = Metabolic stability in human liver microsomes; assay type: in vitro ADME; settings: for % disappearance at 5 minutes relative to time zero / % disappearance at 15 minutes relative to time zero / % disappearance at 30 minutes relative to time zero / Clearance Category / remaining at 5 min, 1 μM / remaining at 0.5 h, 1 μM: human liver microsomes; for Clearance Category: as per Cyprotex Website; for half-life at 1 μM: human, pH 7.4, human liver microsomes (h-MR); for half-life at 1 μM / remaining at 5 min, 1 μM / remaining at 0.5 h, 1 μM: pooled human liver microsomes; for remaining at 5 min, 1 μM / remaining at 0.5 h, 1 μM: pH 7.4; for % disappearance at 30 minutes relative to time zero / remaining at 0.5 h, 1 μM: 30 min; for t1/2: human liver microsomes (h-MR)
Description: Metabolic stability assays were conducted using pooled human liver microsomes (HLMs) to evaluate the rate of in vitro metabolic degradation of the test compound. Incubations were carried out in duplicate (n = 2) at a final compound concentration of 1 μM. The protein concentration of the microsomal suspension was adjusted to 0.5 mg/mL using phosphate buffer (100 mM, pH 7.4). Reactions were initiated by the addition of NADPH (final concentration 1 mM) and incubated at 37 °C. Aliquots were taken at four time points: 0, 5, 15, and 30 min. Each reaction was quenched with ice-cold acetonitrile containing internal standard, followed by centrifugation to pellet proteins. Supernatants were analyzed using a validated LC-MS/MS method to determine the concentration of the parent compound at each time point. […] Metabolic stability was assessed by calculating the percentage of the parent compound remaining at each time point. The elimination rate constant (k), half-life (t1/2), and intrinsic clearance (CLint) were derived from the natural log-transformed concentration vs. time data, assuming first-order kinetics.

α-syn fibrils [5] = target: α-syn fibrils; parameters: method as in PMID 40256311; settings: cited from earlier work
PD brain tissue = target: PD brain tissue; parameters: method as in PMID 40256311; settings: cited from earlier work
MDR1 = target: T2, MDR1 (Homo sapiens, UniProt P08183); assay: Bidirectional transport in MDR1-transfected MDCK cell monolayers; assay type: in vitro ADME; settings: dog; for recovery at 2 μM: MDCK-MDR1, MDR1-MDCK permeability assay; for Papp A→B at 2 μM / Papp B→A at 2 μM: MDCK-MDR1; for Papp A→B at 2 μM: apical-to-basolateral, read-out: A→B apparent permeability; for Papp B→A at 2 μM: basolateral-to-apical, read-out: B→A apparent permeability
T2 construct: host or cells: MDCK cells
T2 sequence (P08183 whole entry): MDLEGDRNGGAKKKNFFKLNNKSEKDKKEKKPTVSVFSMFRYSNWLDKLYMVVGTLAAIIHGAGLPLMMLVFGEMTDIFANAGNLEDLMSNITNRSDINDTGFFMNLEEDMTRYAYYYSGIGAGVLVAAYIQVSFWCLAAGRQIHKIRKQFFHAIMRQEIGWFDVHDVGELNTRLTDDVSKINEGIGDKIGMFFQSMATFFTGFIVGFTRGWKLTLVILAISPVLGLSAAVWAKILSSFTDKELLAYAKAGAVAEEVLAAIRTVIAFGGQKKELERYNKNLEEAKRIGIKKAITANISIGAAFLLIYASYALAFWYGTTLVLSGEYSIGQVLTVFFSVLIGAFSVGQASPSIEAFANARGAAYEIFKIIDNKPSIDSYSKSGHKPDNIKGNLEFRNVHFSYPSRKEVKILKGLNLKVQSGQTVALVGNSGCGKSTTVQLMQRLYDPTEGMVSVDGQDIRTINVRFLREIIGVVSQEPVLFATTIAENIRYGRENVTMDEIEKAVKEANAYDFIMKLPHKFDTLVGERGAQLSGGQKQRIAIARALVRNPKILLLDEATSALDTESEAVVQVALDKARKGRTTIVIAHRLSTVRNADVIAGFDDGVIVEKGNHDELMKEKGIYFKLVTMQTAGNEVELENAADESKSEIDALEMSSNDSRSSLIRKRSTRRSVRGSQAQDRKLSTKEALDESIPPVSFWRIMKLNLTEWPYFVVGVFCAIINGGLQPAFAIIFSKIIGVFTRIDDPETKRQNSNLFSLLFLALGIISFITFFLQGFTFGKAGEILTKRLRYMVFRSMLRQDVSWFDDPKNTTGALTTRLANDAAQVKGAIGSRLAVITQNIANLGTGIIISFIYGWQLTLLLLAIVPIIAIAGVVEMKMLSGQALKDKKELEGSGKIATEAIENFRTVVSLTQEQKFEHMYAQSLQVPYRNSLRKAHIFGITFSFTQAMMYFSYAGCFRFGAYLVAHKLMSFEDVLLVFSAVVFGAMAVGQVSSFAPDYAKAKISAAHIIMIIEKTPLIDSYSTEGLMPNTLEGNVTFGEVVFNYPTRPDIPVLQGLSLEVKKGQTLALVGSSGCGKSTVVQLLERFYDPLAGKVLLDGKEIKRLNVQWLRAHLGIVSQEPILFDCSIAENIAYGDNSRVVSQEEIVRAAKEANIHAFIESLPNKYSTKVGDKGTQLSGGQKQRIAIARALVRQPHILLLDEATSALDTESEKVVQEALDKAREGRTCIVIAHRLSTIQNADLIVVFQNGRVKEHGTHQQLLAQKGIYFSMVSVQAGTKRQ
Description: (§1) MDR1-transfected MDCK cell monolayers, cultured for 5 days and obtained from the Netherlands Cancer Institute, were used for the in vitro bidirectional transport studies. Cells were maintained in Dulbecco’s Modified Eagle Medium (DMEM) supplemented with 10% fetal bovine serum (FBS) and 1% penicillin–streptomycin. They were subcultured every other day at a split ratio of 1:3 to 1:5. For transport experiments, cells were seeded onto polycarbonate Transwell® filter inserts (Millipore) in 24-well plates at a density of 500,000 cells per well. After 24 h, the medium was replaced, and the cells were cultured for an additional 4 days to allow tight junction formation before initiating the transport assays. Transport studies were performed in duplicate using a 2 μM concentration of test compound, in both apical-to-basolateral (A→B) and basolateral-to-apical (B→A) directions. The apparent permeability coefficient (P_app) was calculated using the following equation: Papp (cm/s) = (Vr/C0) (1/S) (dC/dt)
(§2) • P_app is the apparent permeability, • V_r is the volume of the receiver chamber, • C0 is the initial concentration in the donor chamber, • S is the surface area of the cell monolayer (0.7 cm^2; for a 24-well insert), • dC/dt is the rate of appearance of the compound in the receiver chamber.
(§3) The efflux ratio was calculated as: (1) Efflux ratio=Papp B−A/Papp A−B
(§4) Bioanalysis was carried out using LC-MS/MS.

[6] = target: T3, MDR1-transfected MDCK cells (Homo sapiens, UniProt P08183); assay: as above; assay type: in vitro ADME; settings: MDR1-MDCK
T3 construct: host or cells: MDCK cells
T3 sequence (P08183 whole entry): as above
Description: as §1, §2, §3, §4

[7] = target: T4, [^3H]PiB binding in post-mortem Alzheimer’s disease (AD) brain tissue (Homo sapiens, UniProt P05067); assay: Competition binding vs [3H]PiB in post-mortem AD brain tissue
T4 construct: from tissue; host or cells: post-mortem AD brain tissue
T4 sequence (P05067 672-713 limits assumed): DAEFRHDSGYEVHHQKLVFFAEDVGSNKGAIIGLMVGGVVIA
From the text: (§5) We assessed the binding affinity of LMD-022 using a radioligand competition binding assay in post-mortem PD brain tissues. […] To evaluate potential off-target binding in AD brain tissues, we conducted additional binding assays using a panel of AD-related radioligands, including [^3H]PiB, [^3H]MK-6240, [^3H]Z-2340, and [^3H]PI-2620. […] Our future work will aim to optimize chemical yields of lead compounds, including LMD-022, and carry out α-syn fibril seed amplification assays or immunohistochemical co-localization with pathologic α-syn to verify target engagement as well as radiolabel lead molecules for in vivo PET imaging studies.

[8] = target: [^3H]MK-6240 binding in post-mortem Alzheimer’s disease (AD) brain tissue (Homo sapiens, UniProt P10636); assay: Competition binding vs [3H]MK-6240 in post-mortem AD brain tissue
Chain of [^3H]MK-6240 binding in post-mortem Alzheimer’s disease (AD) brain tissue (P10636 623-758 limits assumed): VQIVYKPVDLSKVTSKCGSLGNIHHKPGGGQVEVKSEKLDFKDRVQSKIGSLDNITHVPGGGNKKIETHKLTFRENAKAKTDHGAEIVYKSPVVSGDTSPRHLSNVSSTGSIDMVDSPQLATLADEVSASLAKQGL
From the text: as §5

[9] = target: [^3H]Z-2340 binding in post-mortem Alzheimer’s disease (AD) brain tissue; assay: Competition binding vs [3H]Z-2340 in post-mortem AD brain tissue; parameters: species or system human
From the text: as §5

[10] = target: [^3H]PI-2620 binding in post-mortem Alzheimer’s disease (AD) brain tissue (Homo sapiens, UniProt P10636); assay: Competition binding vs [3H]PI-2620 in post-mortem AD brain tissue
Chain of [^3H]PI-2620 binding in post-mortem Alzheimer’s disease (AD) brain tissue (P10636 623-695 limits assumed): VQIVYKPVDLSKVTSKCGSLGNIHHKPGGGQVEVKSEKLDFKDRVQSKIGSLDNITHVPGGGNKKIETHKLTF
From the text: as §5

[11] = target: T1, α-synuclein (α-syn) aggregates in PD brain homogenates; parameters: method as in PMID 38354298; settings: parent ligand, value printed in Figure 2; cited from earlier work
[12] = target: post-mortem PD brain tissue; parameters: method as in PMID 38354298; settings: cited from earlier work
DLB tissue = system: DLB tissue; parameters: method as in PMID 38843838; settings: cited from earlier work
[13] = A→B, read-out: Calculated recovery, A→B direction
[14] = B→A, read-out: Calculated recovery, B→A direction

Compound | Ki [2] | remaining activity at 0.03 µM [3] | remaining activity at 0.3 µM [3] | % disappearance at 5 minutes relative to time zero [4] | % disappearance at 15 minutes relative to time zero [4] | % disappearance at 30 minutes relative to time zero [4] | Clearance Category [4] | half-life at 1 μM [4] | remaining at 5 min, 1 μM [4] | remaining at 0.5 h, 1 μM [4] | further results
Cc1cc2nc(/C=C/c3ccc(O)c(Br)c3)sc2cc1N(C)CCOCC[18F] [[^18F]F0502B] |  |  |  |  |  |  |  |  |  |  | Kd (α-syn fibrils [1]): 11 nM
F[C@@H]1CCN(c2ccc(-n3cc4sc(-c5cccnc5)cc4n3)cn2)C1 [LMD-032] | 50 nM | 38% | 25% | 46.7% | 79.2% | 95.0% | High | 7.05 min | 53.3% | 5.02% | 
F[C@@H]1CCN(c2ccc(-n3ncc4sc(-c5cncs5)cc43)cn2)C1 [LMD-046] | 12 nM and 11.8 nM | 43% | 8% | 96.6% | 97.9% |  |  |  | 3.43% |  | t1/2 [4]: unstable
[11CH3]Oc1ccc(NC(=O)c2cnc(N3CCN(c4ccccn4)CC3)nc2N)cc1 [[^11C]M503-1619] |  |  |  |  |  |  |  |  |  |  | Ki (α-syn fibrils [5]): 6.5 nM; Kd (PD brain tissue): 1.5 nM
O=C1NCc2nc(-c3cnc(N4CC[C@@H](F)C4)cn3)ccc21 [LMD-022] | 16 nM | 40% | 15% | 7.6% | 17.8% | 24.6% | Moderate | 75 min | 92.4% | 75.4% | t1/2 [4]: 75.3 min; recovery at 2 μM (MDR1; [13]): 61.9%; recovery at 2 μM (MDR1; [14]): 120%; Papp A→B at 2 μM (MDR1): 40.6 ×10⁻⁶ cm/s; Papp B→A at 2 μM (MDR1): 37.6 ×10⁻⁶ cm/s; efflux ratio at 2 μM (MDR1; MDR1-MDCK, read-out: Efflux Ratio (B→A/A→B)): 0.93; Efflux Category [6]: Not a substrate; Permeability Category [6]: High; Ki [7]: > 10000 nM; Ki [8]: > 10000 nM; Ki [9]: > 10000 nM; Ki [10]: 2760 nM
C[C@H]1O[C@@H](O[C@H]2[C@@H](O)C[C@H](O[C@H]3[C@@H](O)C[C@H](O[C@H]4CC[C@@]5(C)[C@H](CC[C@@H]6[C@@H]5C[C@@H](O)[C@]5(C)[C@@H](C7=CC(=O)OC7)CC[C@]65O)C4)O[C@@H]3C)O[C@@H]2C)C[C@H](O)[C@@H]1O [Digoxin] |  |  |  |  |  |  |  |  |  |  | recovery at 2 μM (MDR1; [13]): 79.7%; recovery at 2 μM (MDR1; [14]): 108%; Papp A→B at 2 μM (MDR1): 1.65 ×10⁻⁶ cm/s; Efflux Category [6]: Substrate of efflux; Permeability Category [6]: Low
F[C@@H]1CCN(c2ccc(-c3ccc4sc(-c5cccnc5)cc4n3)cn2)C1 [Asyn-44] |  |  |  |  |  |  |  |  |  |  | Ki [11]: 9 nM; Kd [12]: 1.85 nM
FC1CCN(c2cnc(-n3cc4sc(-c5cccnc5)cc4n3)cn2)CC1 [LMD-051] | 9.2 nM | 38% | 4% | 24.2% | 64.3% | 69.7% | High | 17 min | 75.8% | 30.3% | 
F[C@@H]1CCN(c2cnc(-c3csc4ccc(-c5cccnc5)nc34)cn2)C1 [LMD-044] | 9.1 nM | 38% | 4% | 54.3% | 88.3% | 96.3% | High | 6.37 min | 45.7% | 3.71% | 
CNc1ccc(C#C/C=C/c2nc3ccc(OCC(O)C[18F])cc3s2)cn1 (stereo not shown) [[^18F]C05-05] |  |  |  |  |  |  |  |  |  |  | IC50 (DLB tissue): 1.5 nM
CC(C)NCC(O)COc1cccc2ccccc12 (stereo not shown) [Propranolol] |  |  |  |  |  |  |  |  |  |  | recovery at 2 μM (MDR1; [13]): 95%; recovery at 2 μM (MDR1; [14]): 116%; Papp A→B at 2 μM (MDR1): 9.28 ×10⁻⁶ cm/s; Papp B→A at 2 μM (MDR1): 8.03 ×10⁻⁶ cm/s; Efflux Category [6]: Not a substrate; Permeability Category [6]: Medium
